According to patent US20070009575A1, “Novel use of antisecretory factor” (priority 2003, published 2007):

Tested on: freeze-injured brain tissue
Format: in vivo, rat
Settings: 6 days after freezing injury
From the text: The rats were anaesthetized by the inhalation of isofluorane, and had their heads shaved. The skin was cut open in the mid sagittal plane on the skull. The calvarium was exposed on the left side between the bregma and the lambda. The periostium was detached from the bone, which then was rinsed. Thereafter, great care was taken to remove blood and any fluid from the calvarium as that may impair the subsequent procedure. A probe made of brass, having a cylindric 4 mm long end piece with a diameter of 3 mm, was cooled by immersion in a standardized manner in liquid nitrogen. The cooled probe was thereafter applied for 40 s on the calvarium in between the lambda and bregma, 4 mm lateral to the sagittal mid line. The probe was then removed and the skin wound sutured. The application of the freezing probe resulted transiently in that the brain tissue underlying the exposure site turn frozen. It ought to be stressed that the skull was not opened and no fractures or other signs of gross damage induced. The animals moved afterwards without any obvious problems, behaved normally and ingested food and drinking fluid close to as those untreated, after having recovered from the anaesthesia. Rats (body weight 180-350 g at the start of the experiments), male and female, were supplied with standard pelleted food and tap water prior to and after the brain injury. At the day of injury, the rat were anaesthetized and prepared as described in experiment 2. The freezing probe was applied once for 40 seconds. After suturing the skin wound in the skull and recovered from the anaesthesia, the rats were allowed to move freely. All rats received twice daily for 5 days, starting on the day of surgery, an intravenous injection of 1-10 μg per kg body weight of a synthetic peptide, being a fragment of AF, comprising amino acids 36-51, i.e. composed of 16 amino acids. It was dissolved in saline and prepared freshly prior to each injection. There was no intravenous injection of the peptide on the day of sacrifice, day 6. […] Six days after the freezing injury, the rats were sacrificed and fixed by perfusion as described. […] There were no bleedings in or on the brain. […] The penumbra appeared to be affected by minor oedema. […] Irregularly distributed swellings and beadings of axons and dendrites were sparse. […] There was, however, a variation in the extent of the neuroprotection exerted by the injected peptide.

[1] = peptide i.v. 1-10 μg per kg twice daily for 5 days
[2] = peptide i.v. twice daily for 5 days, vs rats of experiment 2

Substance: fragment of AF, comprising amino acids 36-51: synthetic peptide, being a fragment of AF, comprising amino acids 36-51, i.e. composed of 16 amino acids (VCHSKTRSNPENNVGL; listed as Homo sapiens)
- bleedings in or on the brain [1]: no bleedings
- oedema in the penumbra [1]: minor oedema
- shallow depression of the central parts of the injured area [1]: not marked and in some cases difficult to identify for certain
- extent of brain injury on opening the skull bone (peptide i.v. 1-10 μg per kg twice daily for 5 days, vs standard pellets and tap water only): less extensive brain injury
- irregularly distributed swellings and beadings of axons and dendrites (peptide i.v. twice daily for 5 days): sparse
- proliferation of neural stem and progenitor cells in the SGZ (peptide i.v. twice daily for 5 days, hippocampus): increased proliferation
- occurrence of damaged cells (light microscopy of stained sections) [2]: less extensive occurrence of damaged cells
- residing extravasation of blood (light microscopy) [2]: rarely any residing extravasation of blood
- astrogliosis in the penumbra region (peptide i.v. twice daily for 5 days, vs standard pellets and tap water only): not as extensive and wide-spread
